Measurements as given in article PMC10614388, “Genoprotective potential of Macaranga species phytochemical compounds on HT-29 human colorectal adenocarcinoma cell line” (Genes and Environment, 2023).
Entries after “also recorded” stand apart in the source; their conditions may differ. Where two headings read alike, the source gives them in different places.

How the values were obtained:
HT-29 cells [1] = assay: Reactive oxygen species by dihydroethidine (HE) staining (flow cytometry); format: cell-based, human
Procedure: The generation of superoxide anion was determined as described previously. […] Cells were then centrifuged at 220 g for 5 min and resuspended in 1 ml PBS. Flow cytometry was performed using FACS CANTO II (BD Bioscience).

HT-29 cells [2] = assay: Annexin V-FITC/PI apoptosis assay (flow cytometry); format: cell-based, human
Procedure: The mode of cell death was determined using the Annexin V-FITC/PI apoptosis assay. Cells were treated with IC50 value of the selected compound and apoptosis assessment were done at 4 h, 24 and 48 h respectively. 100µM of menadione was used as a positive control with an enriched media act as a negative control. The measurement of apoptosis is based on phosphatidylserine (PS) exposure as described previously. Briefly, cells were collected and resuspended in […] annexin V buffer containing […] FITC-conjugated annexin V and incubated for 15 min in the dark. Propidium iodide ([…] of 50 mg/ml stock in PBS) was then added and samples were subjected to flow cytometric analysis using FACS CANTO II (BD Biosciences, San Jose, CA, USA).

HT-29 cells [3] = assay: Alkaline Comet assay, protection against menadione-induced genotoxicity
Procedure: (§1) Alkaline Comet Assay was used to assess strand breaks in DNA indicative of DNA damage. The experiment was carried out according to previous study by Tan et al.. […] Cells were also treated with hydrogen peroxide (H2O2) (as positive control, 1.0 mM) for 30 min. […] Following respective incubations, detached cells in the media were collected, added to trypsinize cells and centrifuged (2500 rpm/5 min). The supernatant was removed, and the pellet was washed with Ca^2+−/Mg^2+-free PBS before re-centrifugation. Pellets left at the bottom were mixed thoroughly with 80 µl of 0.6% low melting agarose (LMA) (w/v) and the mixture was pipetted onto hardened 0.6% normal melting agarose (NMA) (w/v) on the slide. Coverslips were placed to spread the mixture and the slides were left on ice for LMA to solidify. Following the removal of the coverslips, the embedded cells were lysed in lysis buffer containing 2.5 M NaCl, 100 mM Na2EDTA, 10 mM Tris, and 1% Triton X-100 for 1 h at 4 °C. Slides were soaked in electrophoresis buffer solution for 20 min at 4 °C for DNA-unwinding before electrophoresis at 300 mA, 25 V, for 20 min. Subsequently, the slides were rinsed with neutralizing buffer for 5 min and stained with […] ethidium bromide solution. Slides were analysed using Leitz Laborlux epifluorescence microscope equipped with 515 barrier filter and 560 emission filter. Fifty cells per slide were scored and the tail moment (TM) and % tail DNA (TD) were analyzed with COMET assay III (Perceptive Instruments, UK).

[4] = system: HT-29 human colorectal adenocarcinoma cell line; assay: Sulforhodamine B (SRB) cytotoxicity assay; format: cell-based; conditions: HT-29 cells, 48 h treatment
Procedure: (§2) HT-29 (HTB-38™) cells were grown in McCoy’s 5a Modified Medium (Sigma-Aldrich, St. Louis, MO, USA) while CCD-18Co (CRL-1459™) cells were grown in Eagle’s Minimum Essential Medium (EMEM; Thermo Fisher Scientific, Waltham, MA, USA). Both culture media were supplemented with 10% foetal bovine serum (FBS; Thermo Fisher Scientific, Waltham, MA, USA) and penicillin-streptomycin antibiotic (Thermo Fisher Scientific, Waltham, MA, USA). Non-essential amino acids (NEAA; Thermo Fisher Scientific, Waltham, MA, USA) were added to the completed EMEM media. Cells were maintained at 37 °C in a 5% CO2 incubator. Cells were detached via trypsinization (0.025% trypsin) after reaching confluency and were ready to be used for tests.
(§3) Sulforhodamine B (SRB) assay was used to assess the cytotoxicity of the compounds [17]. Briefly, HT-29 and CCD-18Co cells were seeded in 96-well-plate at 1.5 × 10^5 cells/ml respectively and were incubated at 37 °C in 5% CO2 for 24 h. 100 µl of six concentrations of serially diluted compounds (0.94–30 µg/ml) were added in their respective wells. Hydrogen peroxide (10 mM) was used as the positive control. The plate was incubated for 48 h. Cells were fixed with 50 µl of 50% cold (4 °C) trichloroacetic Acid (TCA) and incubated at 4 °C for 1 h. The plates were washed five times with tap water and air-dried before staining with 100 µL of 0.4% (w/v) SRB staining solution (Sigma-Aldrich, St. Louis, MO, USA). Further incubation was done for 30 min at room temperature. Subsequently, the plates were washed three times with 1% (v/v) acetic acid to remove any unbound stains. After air-dried, 200 µL of 10 mM trizma base were added into each well and agitated for 15 min. Absorbance was read with a microplate reader with Microplate Manager® Software at the wavelength of 564 nm. All experiments were carried out in triplicates.

[5] = system: murine leukemia P-388 cells; parameters: method as in earlier work; conditions: Tanjung et al. (2017); cited from earlier work
[6] = system: CCD-18Co human normal colon cell line; assay: Sulforhodamine B (SRB) cytotoxicity assay; format: cell-based; conditions: CCD-18Co cells, 48 h treatment
Procedure: as §2, §3

HT-29 cells [7] = conditions: human, 21.2 µM
Procedure: as §1

[8] = parameters: method as in doi:10.1016/j.phytol.2019.02.002; conditions: cited from earlier work
[9] = menadione 100 µM, 4-hour incubation
[10] = pre-treated with Laevifolin A at IC50 for 20 h, followed by 4-hour menadione (100 µM)

Question: With `CC1=CC(=O)c2ccccc2C1=O` [Menadione, reference compound] as the compound, how does the “percentage of cells with HE uptake (generation of ROS)” value (HT-29 cells [1]; menadione at 100 µM, positive control) read?
Answer: 22.6 ± 1.0%

Question: And the “induction of apoptotic cells” value (HT-29 cells [2]; positive control at 100 µM)?
Answer: significant (p < 0.05) increase of apoptotic cells

Question: And the “Level of DNA damage, % tail DNA” value (HT-29 cells [3]; [9])?
Answer: *23.4 ± 3.1%

Question: And the “Level of DNA damage, Tail moment” value (HT-29 cells [3]; [9])?
Answer: *7.00 ± 0.8 Arbitrary unit

Question: With `CC(C)=CCc1cc(CCc2c(CC=C(C)C)c(O)cc(O)c2CC=C(C)C)ccc1O` [Malayheyneiin A] as the compound, how does the IC50 [4] read?
Answer: no IC50 values were obtained

Question: With `CC(C)=CCc1cc(CCc2c(CC=C(C)C)c(O)cc(O)c2CC=C(C)C)cc(O)c1O` [Laevifolin B] as the compound, how does the IC50 [4] read?
Answer: no IC50 values were obtained

Question: And the IC50 [5]?
Answer: 12.3 ± 0.6 µM

Question: Which IC50 [6] does the source give for `CC(C)=CCc1c(CCc2c(CC=C(C)C)c(O)cc(O)c2CC=C(C)C)ccc(O)c1O` [Laevifolin A] here?
Answer: 59.5 µM

Question: And the IC50 ([4]; Homo sapiens, read-out: IC50)?
Answer: 21.2 µM

Question: And the “percentage of cells with HE uptake (generation of ROS)” value (HT-29 cells [1]; Laevifolin A at IC50 (21.2 µM), compared with negative control)?
Answer: no significant increase; also recorded: no significant increase or decrease of ROS

Question: And the “Level of DNA damage, % tail DNA” value (HT-29 cells [7]; 30 min)?
Answer: 6.4 ± 1.6%

Question: And the “Level of DNA damage, Tail moment” value (HT-29 cells [7]; 30 min)?
Answer: 0.53 ± 0.1 Arbitrary unit

Question: What about the “Level of DNA damage, % tail DNA” value (HT-29 cells [7]; 1 h) of the same compound?
Answer: 6.0 ± 0.6%

Question: What about the “Level of DNA damage, Tail moment” value (HT-29 cells [7]; 1 h) of the same compound?
Answer: 0.45 ± 0.03 Arbitrary unit

Question: What about the “Level of DNA damage, % tail DNA” value (HT-29 cells [7]; 4 h) of the same compound?
Answer: 4.3 ± 1.2%

Question: What about the “Level of DNA damage, Tail moment” value (HT-29 cells [7]; 4 h) of the same compound?
Answer: 0.31 ± 0.1 Arbitrary unit

Question: What about the “Level of DNA damage, % tail DNA” value (HT-29 cells [7]; 24 h) of the same compound?
Answer: 7.8 ± 0.7%

Question: And the “Level of DNA damage, Tail moment” value (HT-29 cells [7]; 24 h)?
Answer: 0.69 ± 0.1 Arbitrary unit

Question: And the “induction of apoptotic cells” value (HT-29 cells [2]; Laevifolin A at IC50 (21.2 µM), 4 h, 24 and 48 h, compared to negative control)?
Answer: no induction of apoptosis; also recorded: no significant induction of apoptotic cells; also recorded: did not induce apoptosis

Question: What about the IC50 [5] of the same compound?
Answer: 4.3 ± 0.6 µM

Question: And the “antioxidant properties, DPPH radical scavenging activity” value [8]?
Answer: possesses antioxidant properties

Question: What about the “Level of DNA damage, % tail DNA” value (HT-29 cells [3]; [10]) of the same compound?
Answer: 1.24 ± 0.1%

Question: What about the “Level of DNA damage, Tail moment” value (HT-29 cells [3]; [10]) of the same compound?
Answer: 9.8 ± 0.9 Arbitrary unit
